One may read the Km as the substrate concentration at which the rate is half of its maximum.

Read-outs that look alike come from different tables or passages of the source.

The test system of assay [1] is cystalysin. As to the kind of experiment: Loss of cystalysin enzyme activity through AVG. In kind it is biochemical, Treponema denticola. The settings on record: dead end ketimine PLP derivative formed with AVG. The procedure:
Overall, the PLP cofactor remains fixed in position with only the pyridine ring rotated slightly (≤ 10°), while no major structural changes regarding domain movement have been observed. These findings are contradicting an open/closed mechanism upon substrate binding, since the cystalysin-AVG structure should resemble the physiological enzyme-substrate complex. Due to the similarities in inhibition pattern and spectral changes, AVG should act on cystalysin in a similar manner as reported for CBL (Clausen et al., 1997). After transaldimination, a proton transfer from C^α to C4' is mediated by the deprotonated ε-amino group of the released Lys238, instead of protonating the leaving group. The resulting "dead end" ketimine PLP derivative is responsible for the observed 336 nm-chromophore and the total loss of enzyme activity. The inability of cystalysin to catalyze a transamination of this ketimine also accounts for the high stability of the final intermediate.

The subject of assay [2] is cystalysin. As to the kind of experiment: Spectral measurement of cystalysin after treatment with AVG. In kind it is biochemical, Treponema denticola. As to conditions: chromophore at 336 nm formed simultaneously, spectra at 20°C in 100 mM phosphate buffer. As for the experimental part:
PLP-dependent enzymes catalyzing β-elimination reactions are known to be inhibited by a number of β,γ-unsaturated amino acids like the natural toxins rhizobitoxin (Owens et al., 1968) and L-aminoethoxyvinylglycine (AVG) (Pruess et al., 1974), that act as so-called slow-binding inhibitors (Morrison and Walsh, 1988). […] Spectral and fluorescence measurements lead to similar observations for cystalysin after incubation with AVG (Figure 4A). […] The inhibitor is mainly bound by hydrogen bonds to its carboxylate oxygens which originate from Ala39, Asn 175 and Arg369 (Figure 4C). […] Hydrophobic interactions are with Tyr64* and Phe273* which are in van-der-Waals contact to the carbon atoms CFI, CEI and CGI. Contrary for CBL, the amino-tail of the inhibitor is not bound to Tyr123, but stretched out in opposite direction towards a large hydrophobic cavity formed by the residues Leu17, Val38, Typ64* and Phe273* that is absent in CBL. […]
(A) The spectra of uncomplexed cystalysin and cystalysin after treatment with AVG, recorded at 20°C in 100 mM phosphate buffer. (B) Final 2Fo-Fc electron density of the PLP-AVG complex (yellow) and the intermediate protein vicinity (color-coding by atom type), contoured at 1.2 σ and calculated at 2.5 Å resolution. […]

Assay [3] has as its target cystathionine β-lyase (CBL) (Escherichia coli, UniProt P06721). As to conditions: upon treatment with AVG; cited from earlier work.
Assay [4] concerns the target T1, PLP-dependent β-cystathionase (osteotoxin) (Bordetella avium, UniProt Q07703).
T1 sequence (Q07703 2-396 limits assumed): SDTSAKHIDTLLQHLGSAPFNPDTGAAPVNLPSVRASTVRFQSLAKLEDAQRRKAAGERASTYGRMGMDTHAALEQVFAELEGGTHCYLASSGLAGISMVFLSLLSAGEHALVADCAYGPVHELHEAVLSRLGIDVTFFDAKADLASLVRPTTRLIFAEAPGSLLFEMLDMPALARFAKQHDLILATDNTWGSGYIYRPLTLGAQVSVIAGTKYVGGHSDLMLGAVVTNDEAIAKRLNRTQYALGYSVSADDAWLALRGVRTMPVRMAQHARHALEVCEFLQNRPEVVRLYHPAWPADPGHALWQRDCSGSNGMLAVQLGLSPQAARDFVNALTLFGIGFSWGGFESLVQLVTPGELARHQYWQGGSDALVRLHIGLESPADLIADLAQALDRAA
As to conditions: cited from earlier work.

Assay [5] relates to cystalysin. The settings on record: substrate cleavage by cystalysin; cited from earlier work.

cystathionine β-lyase (CBL), sequence (P06721 2-395): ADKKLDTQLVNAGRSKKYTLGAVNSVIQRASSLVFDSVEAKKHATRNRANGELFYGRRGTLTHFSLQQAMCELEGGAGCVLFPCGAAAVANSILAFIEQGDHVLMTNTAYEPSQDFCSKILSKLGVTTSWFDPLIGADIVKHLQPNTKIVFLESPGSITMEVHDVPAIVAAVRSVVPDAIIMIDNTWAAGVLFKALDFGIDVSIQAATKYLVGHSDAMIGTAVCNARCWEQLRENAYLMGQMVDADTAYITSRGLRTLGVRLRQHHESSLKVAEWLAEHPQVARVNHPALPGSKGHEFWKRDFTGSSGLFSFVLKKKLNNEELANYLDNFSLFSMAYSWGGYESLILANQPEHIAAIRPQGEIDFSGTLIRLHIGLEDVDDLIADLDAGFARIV

Regarding `NCCO/C=C/[C@H](N)C(=O)O` [AVG, L-aminoethoxyvinylglycine], the enzyme activity entry in assay [1] is given as “total loss”. For the same compound, the “pyridoxaldimine absorbance of the active enzyme at 419 nm” value in assay [2] was “rapid and complete loss”. Besides, in assay [3], the “interaction with CBL” value is given as “time-dependent formation of a long-lived, slowly dissociating enzyme-inhibitor compolex”.
For `N[C@@H](CS)C(=O)O` [cysteine], the Km in assay [4] (highest affinity substrate) was 0.077 mM; in assay [4] (weak affinity substrate), 5 mM; in assay [5], 3.6 mM. Besides, the Kcat in assay [5] is 12 s⁻¹.

These data come from EP1158000A1, “Crystal structure data of cystalysin and use thereof for the design and preparation of inhibitor molecules” (priority 2000, dated 2001).
